Laboratory results published in the supplement of paper PMC10307832.

How the values were obtained:
Assay in all cases: relative viability (nuclei count vs DMSO), 5 days (fraction); higher = more cells survive
Palbociclib + Pemetrexed = compound: CC(=O)c1c(C)c2cnc(Nc3ccc(N4CCNCC4)cn3)nc2n(C2CCCC2)c1=O [Palbociclib] + Nc1nc2[nH]cc(CCc3ccc(C(=O)N[C@@H](CCC(=O)O)C(=O)O)cc3)c2c(=O)[nH]1 [Pemetrexed] (partner 0.2 µM)
Outline: (§1)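 A single step with final 0.05% Triton X-100, 1% formaldehyde and 1 ug/ml Hoechst fixed the cells and stained nuclei 5 days after treatment. Lung cancer cell lines in 1536-well plates had been treated by pin tool the day after seeding with one drug alone or a fixed anchor-drug dose plus five library-drug doses (not always all listed) in √10 steps, and nuclei were counted on 4× images. Relative viability is the ratio of nuclei in treated wells to nuclei in vehicle wells, taken as the median of duplicate plates.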

Palbociclib + Bortezomib = compound: CC(=O)c1c(C)c2cnc(Nc3ccc(N4CCNCC4)cn3)nc2n(C2CCCC2)c1=O [Palbociclib] + CC(C)C[C@H](NC(=O)[C@H](Cc1ccccc1)NC(=O)c1cnccn1)B(O)O [Bortezomib] (partner 0.002 µM)
Outline: as §1

Palbociclib + Lapatinib = compound: CC(=O)c1c(C)c2cnc(Nc3ccc(N4CCNCC4)cn3)nc2n(C2CCCC2)c1=O [Palbociclib] + CS(=O)(=O)CCNCc1ccc(-c2ccc3ncnc(Nc4ccc(OCc5cccc(F)c5)c(Cl)c4)c3c2)o1 [Lapatinib] (partner 2 µM)
Outline: as §1

Palbociclib + Pictilisib = compound: CC(=O)c1c(C)c2cnc(Nc3ccc(N4CCNCC4)cn3)nc2n(C2CCCC2)c1=O [Palbociclib] + CS(=O)(=O)N1CCN(Cc2cc3nc(-c4cccc5[nH]ncc45)nc(N4CCOCC4)c3s2)CC1 [Pictilisib] (partner 1 µM)
Outline: as §1

Cell Line | relative viability (Palbociclib + Pemetrexed; first compound 0.01 µM) | relative viability (Palbociclib + Pemetrexed; first compound 0.03162 µM) | relative viability (Palbociclib + Pemetrexed; first compound 0.1 µM) | relative viability (Palbociclib + Pemetrexed; first compound 0.3162 µM) | relative viability (Palbociclib + Pemetrexed; first compound 1 µM) | relative viability (Palbociclib + Bortezomib; first compound 0.01 µM) | relative viability (Palbociclib + Bortezomib; first compound 0.03162 µM) | relative viability (Palbociclib + Bortezomib; first compound 0.1 µM) | relative viability (Palbociclib + Bortezomib; first compound 0.3162 µM) | relative viability (Palbociclib + Bortezomib; first compound 1 µM) | relative viability (Palbociclib + Lapatinib; first compound 0.01 µM) | relative viability (Palbociclib + Lapatinib; first compound 0.03162 µM) | relative viability (Palbociclib + Lapatinib; first compound 0.1 µM) | relative viability (Palbociclib + Lapatinib; first compound 0.3162 µM) | relative viability (Palbociclib + Lapatinib; first compound 1 µM) | relative viability (Palbociclib + Pictilisib; first compound 0.01 µM) | relative viability (Palbociclib + Pictilisib; first compound 0.03162 µM) | relative viability (Palbociclib + Pictilisib; first compound 0.1 µM) | relative viability (Palbociclib + Pictilisib; first compound 0.3162 µM) | relative viability (Palbociclib + Pictilisib; first compound 1 µM)
NCI-H1563 | 0.836 | 0.729 | 0.746 | 0.795 | 0.629 | 0.824 | 0.98 | 0.869 | 0.796 | 0.577 | 0.952 | 0.852 | 0.955 | 0.844 | 0.759 | 0.668 | 0.614 | 0.555 | 0.618 | 0.613
SK-LU-1 | 1.02 | 0.96 | 0.836 | 0.753 | 0.556 | 1.47 |  | 0.92 | 0.912 | 0.58 | 1.02 | 0.856 | 0.624 | 0.619 | 0.529 | 0.559 | 0.474 | 0.445 | 0.383 | 0.286
EPLC-272H | 0.278 | 0.322 | 0.408 | 0.539 | 0.512 | 0.836 |  | 0.792 | 0.883 | 0.512 | 1.14 |  | 0.71 | 0.603 | 0.718 | 0.377 |  | 0.272 | 0.266 | 0.262
NCI-H2342 | 0.766 | 0.691 | 0.861 | 0.747 | 0.556 |  |  |  |  |  |  |  |  |  |  |  |  |  |  | 
ABC-1 |  |  |  |  |  | 0.323 | 0.32 | 0.232 | 0.292 | 0.394 | 1.01 | 1.3 | 1.26 | 1.07 | 1.25 | 0.756 | 0.758 | 0.532 | 0.516 | 0.423
LCLC-97TM1 | 0.201 |  | 0.168 | 0.156 | 0.167 | 0.729 | 0.514 | 0.396 | 0.319 | 0.138 | 0.891 |  | 0.894 | 0.697 | 0.304 | 0.199 |  | 0.122 | 0.157 | 0.101
SW 900 | 0.46 |  | 0.528 | 0.51 | 0.422 |  |  |  |  |  |  |  |  |  |  |  |  |  |  | 
NCI-H661 | 0.878 | 0.792 | 0.645 | 0.571 | 0.416 | 0.874 | 0.584 | 0.588 | 0.649 | 0.521 | 0.491 | 0.437 | 0.477 | 0.345 | 0.333 | 0.407 | 0.409 | 0.379 | 0.3 | 0.251
PC-3 [JPC-3] | 1.14 | 1.06 | 0.952 | 0.878 | 0.428 | 0.776 | 0.701 | 0.706 | 0.665 | 0.545 | 0.436 | 0.378 | 0.433 | 0.415 | 0.344 | 0.778 | 0.647 | 0.56 | 0.677 | 0.494
SW 1573 | 0.773 | 0.729 | 0.646 | 0.681 | 0.461 | 1.15 | 0.928 | 0.985 | 0.842 | 0.506 | 1.01 | 1.09 | 1.04 | 0.901 | 0.781 | 0.447 | 0.389 | 0.322 | 0.327 | 0.289
NCI-H838 | 0.354 | 0.234 | 0.242 | 0.29 | 0.18 | 0.725 | 0.8 | 0.67 | 0.694 | 0.275 | 0.919 | 0.927 | 0.767 | 0.776 | 0.276 | 0.393 | 0.329 | 0.307 | 0.348 | 0.197
NCI-H2087 | 0.683 | 0.664 | 0.621 | 0.537 | 0.393 | 0.803 | 0.81 | 0.702 | 0.485 | 0.372 | 1.08 | 0.814 | 0.688 | 0.649 | 0.442 | 0.83 | 0.669 | 0.478 | 0.498 | 0.393
NCI-H1666 | 0.802 | 0.822 | 0.798 | 0.772 | 0.638 | 0.924 | 0.787 | 0.709 | 0.599 | 0.429 | 0.644 | 0.559 | 0.419 | 0.474 | 0.384 | 0.477 | 0.386 | 0.345 | 0.297 | 0.277
HCC-366 | 0.155 |  | 0.162 | 0.138 | 0.155 | 0.953 |  | 0.965 | 0.975 | 0.616 | 1.06 |  | 0.953 | 0.91 | 0.608 | 0.137 |  | 0.168 | 0.14 | 0.0548
NCI-H1299 |  |  |  |  |  | 1 | 0.871 | 0.925 | 0.873 | 0.72 | 0.952 | 0.877 | 0.86 | 0.809 | 0.642 | 0.762 | 0.486 | 0.541 | 0.347 | 0.259
NCI-H1437 | 0.33 | 0.338 | 0.339 | 0.33 | 0.269 | 0.525 | 0.533 | 0.442 | 0.408 | 0.318 | 0.819 | 0.755 | 0.693 | 0.67 | 0.36 | 0.424 | 0.38 | 0.366 | 0.317 | 0.162
HARA | 0.253 | 0.265 | 0.274 | 0.262 | 0.212 | 1.07 | 1.02 | 1 | 0.874 | 0.389 | 0.715 | 0.473 | 0.397 | 0.363 | 0.225 | 0.406 | 0.347 | 0.225 | 0.202 | 0.169
H3255 | 0.602 | 0.59 | 0.576 | 0.488 | 0.397 | 0.912 | 0.789 | 0.624 | 0.641 | 0.317 | 0.263 | 0.246 | 0.2 | 0.231 | 0.211 | 0.517 | 0.376 | 0.394 | 0.434 | 0.261
